Laboratory results from publication doi:10.1101/2021.09.30.462664v1 (biorxiv, 2021).
Changes are numbered by the printed parent chain.

Assays:
Assay in all cases: whole-cell patch clamp, V0.[…] shift, Hill fit
Type in all cases: cell-based
[1] = biological target: KCNQ2/3 channel (KCNQ2/3 heteromers) (Homo sapiens, UniProt O43525+O43526)
[2] = biological target: T1, KCNQ3 (homomer; KCNQ3T = KCNQ3-A315T) (Homo sapiens, UniProt O43525, A315T/F167A)
T1 sequence (O43525 1-872 F167A/A315T): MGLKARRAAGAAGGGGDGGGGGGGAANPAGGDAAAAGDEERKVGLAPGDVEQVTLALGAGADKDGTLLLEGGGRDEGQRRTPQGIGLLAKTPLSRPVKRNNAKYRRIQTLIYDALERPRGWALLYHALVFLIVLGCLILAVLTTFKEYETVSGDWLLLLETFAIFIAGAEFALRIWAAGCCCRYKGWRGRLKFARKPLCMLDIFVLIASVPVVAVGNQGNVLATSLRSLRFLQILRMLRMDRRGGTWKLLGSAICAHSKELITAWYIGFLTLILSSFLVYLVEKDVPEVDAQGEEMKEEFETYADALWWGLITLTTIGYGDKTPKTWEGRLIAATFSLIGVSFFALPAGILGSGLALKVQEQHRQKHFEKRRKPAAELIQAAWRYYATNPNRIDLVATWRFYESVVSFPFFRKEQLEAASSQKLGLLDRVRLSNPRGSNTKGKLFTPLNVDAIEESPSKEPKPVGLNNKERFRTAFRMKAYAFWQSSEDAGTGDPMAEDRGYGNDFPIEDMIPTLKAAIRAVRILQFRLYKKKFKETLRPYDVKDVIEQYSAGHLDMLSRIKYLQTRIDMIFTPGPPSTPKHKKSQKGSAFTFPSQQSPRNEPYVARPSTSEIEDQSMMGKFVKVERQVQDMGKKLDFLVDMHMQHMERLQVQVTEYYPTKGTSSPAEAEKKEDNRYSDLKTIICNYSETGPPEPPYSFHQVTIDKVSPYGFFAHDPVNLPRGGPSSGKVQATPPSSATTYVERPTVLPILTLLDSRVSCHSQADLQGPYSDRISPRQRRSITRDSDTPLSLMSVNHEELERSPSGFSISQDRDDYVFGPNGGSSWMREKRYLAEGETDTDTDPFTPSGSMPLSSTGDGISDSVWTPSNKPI

[3] = biological target: T2, KCNQ3 (homomer; KCNQ3T = KCNQ3-A315T) (Homo sapiens, UniProt O43525, A315T)
T2 sequence (O43525 1-872 A315T): T1 sequence (O43525 1-872 F167A/A315T) with A167F

[4] = biological target: T3, KCNQ3 (homomer; KCNQ3T = KCNQ3-A315T) (Homo sapiens, UniProt O43525, A315T/S209A)
T3 sequence (O43525 1-872 S209A/A315T): T1 sequence (O43525 1-872 F167A/A315T) with A167F, S209A

KCNQ2/3 channel (KCNQ2/3 heteromers), sequence (O43525 whole entry): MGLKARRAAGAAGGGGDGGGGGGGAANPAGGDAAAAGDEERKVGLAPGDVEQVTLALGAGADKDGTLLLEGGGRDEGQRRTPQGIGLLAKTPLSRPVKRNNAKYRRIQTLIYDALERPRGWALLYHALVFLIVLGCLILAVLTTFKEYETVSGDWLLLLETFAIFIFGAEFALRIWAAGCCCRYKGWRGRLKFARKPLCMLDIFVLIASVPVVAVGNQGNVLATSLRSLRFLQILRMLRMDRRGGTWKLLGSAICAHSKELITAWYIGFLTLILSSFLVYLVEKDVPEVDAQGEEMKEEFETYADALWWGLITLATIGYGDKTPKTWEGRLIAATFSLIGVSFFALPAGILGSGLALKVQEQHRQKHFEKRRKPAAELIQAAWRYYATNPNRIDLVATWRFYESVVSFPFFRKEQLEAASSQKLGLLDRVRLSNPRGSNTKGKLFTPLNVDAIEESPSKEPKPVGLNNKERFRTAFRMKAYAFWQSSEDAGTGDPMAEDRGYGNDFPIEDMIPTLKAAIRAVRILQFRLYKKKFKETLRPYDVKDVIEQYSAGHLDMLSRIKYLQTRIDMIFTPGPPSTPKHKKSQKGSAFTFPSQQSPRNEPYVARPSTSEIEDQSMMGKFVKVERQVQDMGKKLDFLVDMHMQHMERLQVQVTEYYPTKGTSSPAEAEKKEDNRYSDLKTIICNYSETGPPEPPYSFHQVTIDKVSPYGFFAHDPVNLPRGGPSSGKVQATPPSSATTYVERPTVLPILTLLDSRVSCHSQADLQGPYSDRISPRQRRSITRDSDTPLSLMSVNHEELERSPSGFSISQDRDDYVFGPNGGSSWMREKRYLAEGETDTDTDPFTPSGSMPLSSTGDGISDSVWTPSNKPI
KCNQ2/3 channel (KCNQ2/3 heteromers), sequence (O43526 whole entry): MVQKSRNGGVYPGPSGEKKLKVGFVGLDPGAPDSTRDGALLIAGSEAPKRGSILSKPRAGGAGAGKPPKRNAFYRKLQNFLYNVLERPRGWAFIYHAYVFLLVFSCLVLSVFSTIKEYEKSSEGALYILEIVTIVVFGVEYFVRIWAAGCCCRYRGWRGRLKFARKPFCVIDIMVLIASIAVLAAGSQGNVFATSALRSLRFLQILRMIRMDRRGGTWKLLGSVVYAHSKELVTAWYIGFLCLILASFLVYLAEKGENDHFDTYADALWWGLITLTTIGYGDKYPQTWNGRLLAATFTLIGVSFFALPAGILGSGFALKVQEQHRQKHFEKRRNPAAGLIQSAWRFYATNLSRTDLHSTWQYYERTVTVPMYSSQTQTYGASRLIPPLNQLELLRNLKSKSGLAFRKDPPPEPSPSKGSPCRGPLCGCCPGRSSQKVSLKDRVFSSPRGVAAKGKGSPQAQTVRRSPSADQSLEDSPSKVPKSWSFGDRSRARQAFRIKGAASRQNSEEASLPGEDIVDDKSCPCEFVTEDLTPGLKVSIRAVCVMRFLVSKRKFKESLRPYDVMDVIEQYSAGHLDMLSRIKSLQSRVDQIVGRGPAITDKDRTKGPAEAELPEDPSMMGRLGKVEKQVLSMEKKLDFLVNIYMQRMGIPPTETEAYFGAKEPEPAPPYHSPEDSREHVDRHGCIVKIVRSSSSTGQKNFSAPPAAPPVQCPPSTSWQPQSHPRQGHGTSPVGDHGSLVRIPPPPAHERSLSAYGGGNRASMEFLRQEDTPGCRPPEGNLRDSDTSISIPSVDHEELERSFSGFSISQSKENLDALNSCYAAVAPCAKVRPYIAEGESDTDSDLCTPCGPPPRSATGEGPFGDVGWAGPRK

SMILES	EC50 [1] [µM]	EC50 [2] [µM]	EC50 [3] [µM]	EC50 [4] [µM]
CCOC(=O)Nc1ccc(NCc2ccc(F)cc2)cc1N [retigabine]	3.6	–	–	–
Oc1cc(Cl)ccc1Oc1ccc(Cl)cc1Cl [triclosan]	32	42	38	46
